# Laboratory results reported in patent publication EP0025288A1, “Derivatives of monic acid, processes for their preparation, compositions containing them and their preparation” (priority 1979, dated 1981).
# Assays:
# [1] = test system: E coli NCTC 10418; assay: MIC, veterinary bacteria; format: cell-based; details: veterinary bacteria (Table 2), read-out: MIC
# [2] = test system: E coli E1; assay: MIC, veterinary bacteria; format: cell-based; details: veterinary bacteria (Table 2), read-out: MIC
# [3] = test system: S dublin S7; assay: MIC, veterinary bacteria; format: cell-based; details: veterinary bacteria (Table 2), read-out: MIC
# [4] = test system: S typhimurium S18; assay: MIC, veterinary bacteria; format: cell-based; details: veterinary bacteria (Table 2), read-out: MIC
# [5] = test system: Bord bronchiseptica BO8; assay: MIC, veterinary bacteria; format: cell-based; details: veterinary bacteria (Table 2), read-out: MIC
# [6] = test system: Bord bronchisptica BO9; assay: MIC, veterinary bacteria; format: cell-based; details: veterinary bacteria (Table 2), read-out: MIC
# [7] = test system: Past multocida PA1; assay: MIC, veterinary bacteria; format: cell-based; details: veterinary bacteria (Table 2), read-out: MIC
# [8] = test system: Past multocida PA2; assay: MIC, veterinary bacteria; format: cell-based; details: veterinary bacteria (Table 2), read-out: MIC
# [9] = test system: Past Haemolytica PA5; assay: MIC, veterinary bacteria; format: cell-based; details: veterinary bacteria (Table 2), read-out: MIC
# [10] = test system: Erysipelothrix rhusiopathiae NCTC 8163; assay: MIC, veterinary bacteria; format: cell-based; details: NCTC8163, veterinary bacteria (Table 2), read-out: MIC
# [11] = test system: Corynebacterium pyogenes CY1; assay: MIC, veterinary bacteria; format: cell-based; details: veterinary bacteria (Table 2), read-out: MIC
# [12] = test system: Staph aureus B4 (pen resis); assay: MIC, veterinary bacteria; format: cell-based; details: Staphylococcus aureus, veterinary bacteria (Table 2), read-out: MIC
# [13] = test system: Staph aureus 152 (pen sens); assay: MIC, veterinary bacteria; format: cell-based; details: Staphylococcus aureus, veterinary bacteria (Table 2), read-out: MIC
# [14] = test system: Staph aureus Oxford; assay: MIC, veterinary bacteria; format: cell-based; details: Staphylococcus aureus, veterinary bacteria (Table 2), read-out: MIC
# [15] = test system: Strep suis (group D) SPS11; assay: MIC, veterinary bacteria; format: cell-based; details: veterinary bacteria (Table 2), read-out: MIC
# [16] = test system: Strep uberis SPU1; assay: MIC, veterinary bacteria; format: cell-based; details: veterinary bacteria (Table 2), read-out: MIC
# [17] = test system: Strep dysgalaciae SPD1; assay: MIC, veterinary bacteria; format: cell-based; details: veterinary bacteria (Table 2), read-out: MIC
# [18] = test system: Strep agalactiae SPA1; assay: MIC, veterinary bacteria; format: cell-based; details: veterinary bacteria (Table 2), read-out: MIC
# [19] = test system: M suipneumoniae Str 11; assay: MIC, anti-mycoplasmal, Friis' broth microtiter method; format: cell-based; details: read-out: in vitro MIC, BROTH
# [20] = test system: M suipneumoniae J2206/183b; assay: as above; format: cell-based; details: read-out: in vitro MIC, BROTH
# [21] = test system: M dispar H225; assay: as above; format: cell-based; details: read-out: in vitro MIC, BROTH
# [22] = test system: M dispar NCTC 10125; assay: as above; format: cell-based; details: read-out: in vitro MIC, BROTH
# [23] = test system: M pneumoniae 427a; assay: as above; format: cell-based; details: read-out: in vitro MIC, BROTH
# [24] = test system: M pneumoniae ATCC 15492; assay: as above; format: cell-based; details: read-out: in vitro MIC, BROTH
# [25] = test system: M fermentans MWKL4; assay: as above; format: cell-based; details: read-out: in vitro MIC, BROTH
# [26] = test system: M pulmonis JB; assay: as above; format: cell-based; details: read-out: in vitro MIC, BROTH
# [27] = test system: M pneumoniae 427a; assay: MIC, anti-mycoplasmal, serial dilution in Friis' agar; format: cell-based; details: read-out: in vitro MIC, AGAR
# [28] = test system: M pneumoniae ATCC 15492; assay: as above; format: cell-based; details: read-out: in vitro MIC, AGAR
# [29] = test system: M fermentans MWKL4; assay: as above; format: cell-based; details: read-out: in vitro MIC, AGAR
# [30] = test system: M pulmonis JB; assay: as above; format: cell-based; details: read-out: in vitro MIC, AGAR
# [31] = test system: M hyorhinis ATCC 23234; assay: as above; format: cell-based; details: read-out: in vitro MIC, AGAR
# [32] = test system: M hyosynoviae ATCC 25591; assay: as above; format: cell-based; details: read-out: in vitro MIC, AGAR
# [33] = test system: M arthritidis ATCC 14124; assay: as above; format: cell-based; details: read-out: in vitro MIC, AGAR
# [34] = test system: M gallisepticum S6; assay: as above; format: cell-based; details: read-out: in vitro MIC, AGAR
# [35] = test system: M synoviae ATCC 25204; assay: as above; format: cell-based; details: read-out: in vitro MIC, AGAR
# [36] = test system: M alkalescens NCTC 10135; assay: as above; format: cell-based; details: read-out: in vitro MIC, AGAR
# [37] = test system: M bovigenitalium ATCC 14173; assay: as above; format: cell-based; details: read-out: in vitro MIC, AGAR
# [38] = Serum binding by ultrafiltration; format: in vitro ADME, pig; details: pig, serum, compounds at 8 mcg/ml, microbiological assay (B. subtilis ATCC 6633), read-out: % bound to pig serum (converted)
# Method: Serum binding was assessed by ultrafiltration of procine serum containing compounds at 8 mcg/ml, and through an Amicon CF50A ultrafiltration cone. Separation of ultrafiltrate was achieved by centrifugation.
compound,measurement,setting,value
"CC(=O)COC(=O)C=C(C)CC1OCC(CC2OC2C(C)C(C)O)C(O)C1O (centres unmarked) [Example 1, Acetvlmethvl Monate A]",MIC,[1],> 80 µg/mL
same,MIC,[2],> 80 µg/mL
same,MIC,[3],> 80 µg/mL
same,MIC,[4],> 80 µg/mL
same,MIC,[5],> 80 µg/mL
same,MIC,[6],40 µg/mL
same,MIC,[7],0.625 µg/mL
same,MIC,[8],0.312 µg/mL
same,MIC,[9],5 µg/mL
same,MIC,[10],> 80 µg/mL
same,MIC,[11],> 80 µg/mL
same,MIC,[12],2.5 µg/mL
same,MIC,[13],2.5 µg/mL
same,MIC,[14],2.5 µg/mL
same,MIC,[15],40 µg/mL
same,MIC,[16],2.5 µg/mL
same,MIC,[17],5 µg/mL
same,MIC,[18],5 µg/mL
same,MIC,[19],0.625 µg/mL
same,MIC,[20],1.25 µg/mL
same,MIC,[21],0.156 µg/mL
same,MIC,[22],0.156 µg/mL
same,MIC,[23],> 10 µg/mL
same,MIC,[24],> 10 µg/mL
same,MIC,[25],0.078 µg/mL
same,MIC,[26],0.156 µg/mL
same,MIC,[27],10 µg/mL
same,MIC,[28],> 10 µg/mL
same,MIC,[29],0.312 µg/mL
same,MIC,[30],0.156 µg/mL
same,MIC,[31],2.5 µg/mL
same,MIC,[32],1.25 µg/mL
same,MIC,[33],> 10 µg/mL
same,MIC,[34],> 10 µg/mL
same,MIC,[35],< 0.02 µg/mL
same,MIC,[36],0.039 µg/mL
same,MIC,[37],0.078 µg/mL
same,fraction unbound,[38],0.772
